{
  "source": "patent US20260102357A1",
  "about": "“Sulfur-Containing Ionizable Lipids for the Delivery of Therapeutic Agents” (NanoVation Therapeutics Inc., priority 2022, published 2026)",
  "origin": "cited, not measured here",
  "conditions": "delivery of siRNA; fold less siRNA than KC2",
  "data": [
    {"smiles": "CCCCC/C=C\\C/C=C\\CCCCCCCCC(CCCCCCCC/C=C\\C/C=C\\CCCCC)OC(=O)CCCN(C)C", "note": "[MC3, DLin-MC3-DMA]", "values": [
      {"measurement": "siRNA required relative to KC2", "result": "about 3 times less"}
    ]}
  ]
}
